Experimental data published in patent publication US9439984B2, “Macrocycles” (priority 2012, dated 2016).

What was measured:
[1] = cited from earlier work; for Log K1 with thorium(IV): ligands of increasing denticity; for log β110 with Th: literature constant used for comparison and in the refinement; for log β111 with Th: protonated 1:1 Th complex, constant included in the refinement
[2] = Th(IV) spectrophotometric EDTA competition titration (solution thermodynamics); details: for pM value (negative logarithm of the free metal concentration): Th(IV); for log β110 (cumulative stability constant) with Th(IV): 25° C., 0.1 M KCl, 5% DMSO, βmlh for mM+lL+hH ⇄ MmLlHh
Procedure: All spectrophotometric titrations were carried out with constant stirring and a blanket of argon flow in a jacketed cell connected to a recirculating water bath to maintain the temperature at 25° C. All solutions contained 0.1 M KCl with 5% DMSO (v/v), for consistency with titrations where DMSO was used to ensure solubility. The ligand was added as a 50 mM DMSO stock solution, and Th(IV) as a standardized 10 mM stock solution in nitric acid (79 mM). The HCl and KOH solutions were prepared by dilution of Dilut-It (J. T. Baker) concentrated solutions with degassed Millipore water containing 5% DMSO, to maintain the DMSO concentration constant throughout the titration. The 0.1 M HCl solution was standardized by titration of Tris using bromocresol green as an indicator, and the 0.1 M KOH solution was standardized by titration of KHP using phenolphthalein as an indicator. The glass electrode (Nova Analytics Pinnacle) used for the pH measurements was calibrated by adding 2.000 mL 0.1 M HCl (5% DMSO) to 50.0 mL 0.1 M KCl (5% DMSO), and titrating the solution to pH 11.6 with 0.1 M KOH (5% DMSO). The titration was analyzed using the program GLEE to refine for 8 and the slope. For low pH titrations, a strong acid calibration was performed by titrating 50.0 mL 0.1 M KCl with 5% (v/v) DMSO with 0.1 M HCl to pH 1.8. The data were analyzed in an Excel spreadsheet using the SOLVER function to refine for Σ° and the slope. Metrohm Brinkmann 665 Dosimat instruments were the automated burettes used to dispense the titrant, the pH meter was a Fisher Accumet AR 15, and the UV-Vis spectrometer a Hewlett-Packard 8452A. The computer program Labview was the interface from which all these components were orchestrated to run the titrations. A value of −14.20 was used as the pKw to account for the DMSO content.
50 mL solutions (5% DMSO) of 50 μM ligand and 20 equivalents (1 mM) each of MES, HEPES, and CHES, were titrated forward and backward between pH 1.9 and 12.7 with standardized 0.1 M KOH and 0.1 M HCl. The data points were collected at constant increments of 0.05 pH units at pH 1.9-11.5, with an equilibration time of 90-500 sec following titrant additions and a 10 min. delay between successive pH readings. Titration data above pH 11.5 was collected at constant increments of 0.10 pH units, to minimize the time at which the electrode is exposed to strongly basic conditions. All absorbance measurements used in the refinement were no more than 1.0 absorbance units. Spectra from 300-450 nm were analyzed (simultaneously) in the program pHAb. Titrations for constants reported with a standard deviation were performed in triplicate (the standard deviation is between individually refined values for each titration).
50 mL solutions of 50 μM ligand, 50 μM Th(IV), and 500 μM EDTA (Sigma Aldrich) or DTPA (Pharm-Eco) were titrated forward and backward with standardized 0.1 M KOH and 0.1 M HCl. The data points were collected at constant increments of 0.05 pH units, with an equilibration time of 90-500 sec following titrant additions and a 20-30 min delay between successive pH readings. All absorbance measurements used in the refinement were no more than 1.1 absorbance units. Spectra from 300-450 nm were analyzed (simultaneously) in the program pHAb. The following values for the log β for the formation of Th hydroxides were included in the refinement: [ThOH]^3+, −2.5; [Th(OH)2]^2+, −6.2; Th(OH)4, −17.4; [Th2(OH)2]^6+, −5.9; [Th2(OH)3]^5+, −6.8; [Th4(OH)8]^8+, −20.4; [Th4(OH)12]^4+, −26.6; [Th4(OH)14]^2+, −36.8; [Th4(OH)15]^+, −36.8. The following stability constants for Th with EDTA (DTPA) were also included: log β011, 10.17 (10.45); log β012, 16.28 (18.98); log β013, 18.96 (23.26); log β014, 22.46 (25.91); log β015, 22.46 (27.73); log β110, 23.2 (28.78); log β111, 25.18 (30.94). Spectra of the free ligand, refined from the ligand titrations, were set constant in the refinement as well.

[3] = UV-Vis dye (arsenazo III) displacement kinetic experiments; assay type: binding; details: 100 mM HEPES pH 7.4, 100 mM KCl, 25° C., qualitative
Procedure: Spectra were acquired on an Hewlett-Packard 8453 spectrometer at 25° C. The temperature was controlled by a recirculating water bath connected to a jacketed cell holder. Samples were measured in small volume (50 μL) quartz cuvettes with 1 cm path lengths. Solutions were buffered with 100 mM HEPES at pH 7.4 (at 25° C.) and 100 mM KCl. Complexation of the thorium and dye was performed by combining aqueous stock solutions of standardized Th^4+ in nitric acid (77.9 mM HNO3, pH 1.4, 1 mM) and purified dye (1 mM). The solution was let sit on the bench at room temperature for 30 min, diluted in buffer, and let sit at room temperature for an hour. The absorbance was monitored starting from the addition of ligand, as a solution of DMSO ligand stock solution (5 mM) and buffer (equilibrated for 15 min. beforehand). The A vs. t plots were fit with a first-order decay equation in Origin at wavelengths corresponding to the appearance of free dye (550, 560 nm) and the disappearance of thorium-dye complex (614, 669, 700 nm). The reaction with DOTA was refluxed (and stirred with a magnetic stir bar) and performed on a 3 mL scale (instead of 100 μL) in a 10 mL round-bottom flask, placed in an oil bath, and fitted with a reflux condenser. Aliquots were taken periodically and transferred to a cuvette for UV-Vis spectra acquisition. […]

[4] = Stopped-flow UV-Vis kinetics of direct association with Th(IV); assay type: binding; details: 5 μM Th, 10-25 equivalents of ligand, 100 mM HEPES (pH 7.4), 5% DMSO; average of four experiments
Procedure: The stopped-flow kinetic experiments were performed using a stopped-flow apparatus equipped with an OLis rapid-scanning monochromator 1000 and a 75 W Xe lamp. Upon electronic activation, the apparatus (powered with a gas source, in this case, Ar) mixes 100 μL of each solution in the two syringes into a mixing chamber. This mixture is flowed into a separate chamber, where the flow is stopped and UV spectra are taken. One syringe contained 10 μM Th(IV) in 77.9 mM HNO3 (pH 1.4), while the other held a solution of 50-300 μM ligand, in 200 mM HEPES (pH 8.3) and 10% DMSO. The 1:1 mixture of these solutions was 5 μM Th, 25-150 μM ligand, 100 mM HEPES (pH 7.4). […] The data were analyzed using the program SpecFit to simultaneously use the absorbance at all of the wavelengths to obtain a second-order rate constant.
The kinetics of the direct association of L with Th(IV) have been elusive thus far due to the presence of various species in solution (as the metal ion can hydrolyze to form various species such as Th(OH)^3+, Th(OH)2^2+, Th4(OH)12^4+, and Th(OH)4, and L has many protonation states) and the small spectral change upon complexation. […] However, UV-Vis kinetics experiments using a stopped-flow apparatus and more intense light source enabled a direct and quantitative assessment of the complexation. […]

[5] = cited from earlier work; for log β011: m=0, l=1, h=1 (ligand protonation), printed among stability constants for Th; for log β012: m=0, l=1, h=2 (ligand protonation); for log β013: m=0, l=1, h=3 (ligand protonation); for log β014: m=0, l=1, h=4 (ligand protonation); for log β015: m=0, l=1, h=5 (ligand protonation)
[6] = 1 μM metal, 10 μM ligand, pH 7.4

## O=C(O)CN(CC(=O)O)CC(=O)O [NTA]
[1]
  Log K1 with thorium(IV): 16.9

## COCCNC(=O)c1ccc(C(=O)NCCN2CCNC(=O)c3ccc(c(O)c3O)C(=O)NCCN(CCNC(=O)c3ccc(C(=O)NCCOC)c(O)c3O)CCNC(=O)c3ccc(c(O)c3O)C(=O)NCC2)c(O)c1O [phi(2,2)moeTAM, Tren2TAM2[TAM(OMeEtN)]2]
[2]; [6]
  pM value (negative logarithm of the free metal concentration): 40.2
[2]; 1 μM metal, 10 μM ligand, pH 7.4, relative to DTPA
  pM greater than the pM value for DTPA: 14 orders of magnitude
[2]; 1 μM metal, 10 μM ligand, pH 7.4, relative to ethyl-TAM
  pM greater than the pM value for ethyl-TAM: 21 orders of magnitude
[2]
  log β110 (cumulative stability constant) with Th(IV): 53.7(5)
[2]; relative to DTPA (28.78)
  log β110 greater than that of DTPA: over 24 orders of magnitude
[3]
  rate of Th(IV) complexation greater than those of DOTA and DTPA: 1-2 orders of magnitudes
[4]
  second-order rate constant of complexation of Th(IV): 1.6(3)×10^4 M^−1 s^−1

## O=C(O)CN(CCN(CC(=O)O)CC(=O)O)CCN(CC(=O)O)CC(=O)O [DTPA]
[1]
  Log K1 with thorium(IV): 30.34
  log β110 with Th: 28.78
  log β111 with Th: 30.94
[5]
  log β011: 10.45
  log β012: 18.98
  log β013: 23.26
  log β014: 25.91
  log β015: 27.73

## O=C(O)CN(CCN(CCN(CC(=O)O)CC(=O)O)CC(=O)O)CCN(CC(=O)O)CC(=O)O [TTHA]
[1]
  Log K1 with thorium(IV): 31.9

## O=C(O)CN(CCO)CCN(CC(=O)O)CC(=O)O [HEDTA]
[1]
  Log K1 with thorium(IV): 18.5

## CNC(=O)c1ccc(C(=O)NCCCN(CCCCN(CCCNC(=O)c2ccc(C(=O)NC)c(O)c2O)C(=O)c2ccc(C(=O)NC)c(O)c2O)C(=O)c2ccc(C(=O)NC)c(O)c2O)c(O)c1O [3,4,3-LiMeTAM]
[2]; [6]
  pM value (negative logarithm of the free metal concentration): 39.2
[2]
  log β110 (cumulative stability constant) with Th(IV): 56.1

## O=C(O)CN(CCN(CC(=O)O)CC(=O)O)CC(=O)O [EDTA]
[1]
  Log K1 with thorium(IV): 25.3
  log β110 with Th: 23.2
  log β111 with Th: 25.18
[5]
  log β011: 10.17
  log β012: 16.28
  log β013: 18.96
  log β014: 22.46
  log β015: 22.46

## CC(=O)CC(C)=O [Acac]
[1]
  Log K1 with thorium(IV): 7.85
